Measurements taken from patent US10709750B2, “Female menopause alleviation use of composition containing composite extract of red clover and pomegranate as active ingredient” (HLSCIENCE CO., LTD, priority 2014, dated 2020).
Marks after values point to notes of the source that are not given here.

Key:
Type in all cases: in vivo
Settings in all cases: 120 mg/kg po; estradiol 0.03 μg/head sc
OVX ddY mice [1] = test: Femur histomorphometry in OVX ddY mice
Description: (§1) Optimal amounts of red clover extract or pomegranate extract were suspended or dissolved in sterile distilled water, and orally administered at a dose of 10 ml/kg once daily for 84 days from 28 days after OVX. That is, red clover extract and pomegranate extract single formula, and red clover:pomegranate extract 1:1, 1:2, 1:4, 1:6, 1:8, 2:1, 4:1, 6:1 and 8:1 (g/g) mixture 120 mg/kg were each orally administered for 84 days, and sham control and OVX control were orally administered with only sterile distilled water as a vehicle at the same dose for the same period instead of the test material, and according to earlier researchers' method [Chiba et al., 2003; Murakami et al., 2007; Tousen et al., 2011], 0.03 ug of 17β-estradiol (Sigma-Aldrich, St. Louise, Mo., USA) was dissolved in 0.2 ml of sterile saline, and subcutaneously administered to back skin at a dose of 0.2 ml/mouse (0.03 μg/head/day) once daily for 84 days from 28 days after OVX surgery (Table 15, FIG. 18). The administration dose of mixed formula was set higher 12 times than a human clinical dose of 600 mg, i.e., 600 mg/60 kg)×12=120 mg/kg, in consideration of a body surface area of mouse, and the dose of each of red clover extract and pomegranate extract single formula was also set as 120 mg/kg for direct comparative evaluation of efficacy.
(§2) The osteoporosis reduction effect was ascertained through histological changes in wet, dry and ash weights of femurs, BMD (FIG. 20), bone strength (FIG. 21), serum osteocalcin and bALP levels, bone mass and structure (trabecular bone mass, trabecular bone number, thickness and length, and cortical bone thickness), and bone resorption (osteoclast cell number and osteoclast cell surface (OS/BS)).

OVX ddY mice [2] = test: Body weight and food consumption in OVX ddY mice, once daily for 84 days
Description: That is, the experiment was performed after dividing into sterile distilled water 10 ml/kg administered vehicle control after sham surgery (hereinafter sham control), sterile distilled water 10 ml/kg administered vehicle control after OVX surgery (hereinafter OVX control), pomegranate extract single formula 120 mg/kg administered group (PCP) after OVX, and 9 types of red clover:pomegranate extract mixed formula (g/g) administered groups after OVX surgery including red clover:pomegranate extract 1:1 (g/g) mixed formula 120 mg/kg administered group after OVX surgery (1-1), red clover:pomegranate extract 1:2 (g/g) mixed formula 120 mg/kg administered group after OVX surgery (1-2), red clover:pomegranate extract 1:4 (g/g) mixed formula 120 mg/kg administered group after OVX surgery (1-4), red clover:pomegranate extract 1:6 (g/g) mixed formula 120 mg/kg administered group after OVX surgery (1-6), red clover:pomegranate extract 1:8 (g/g) mixed formula 120 mg/kg administered group after OVX surgery (1-8), red clover:pomegranate extract 2:1 (g/g) mixed formula 120 mg/kg administered group after OVX surgery (2-1), red clover:pomegranate extract 4:1 (g/g) mixed formula 120 mg/kg administered group after OVX surgery (4-1), red clover:pomegranate extract 6:1 (g/g) mixed formula 120 mg/kg administered group after OVX surgery (6-1), and red clover:pomegranate extract 8:1 (g/g) mixed formula 120 mg/kg administered group after OVX surgery (8-1).
as §1
That is, all experimental animals except sham control were randomly selected and underwent bilateral ovariectomy to induce estrogen deficient menopausal disorder. On the other hand, in sham operated group, both ovaries were detected by the same method but incisions were not made, and abdominal cavities were closed again. At 27 days after surgery, based on body weights (OVX mice: 30.71±1.65 g, 28.0-35.1 g; sham operated mice: 26.99±1.46 g, 24.4-28.7 g), 8 mice per group were selected from all experimental animals including sham operated group, and used for experiments.
More specifically, the anti-obesity and estrogen-like effects were tested as follows. The body weights on OVX surgery date, 1 day before administration (27 days after OVX), the start date of administration, and from the first day after start of administration up to the time of final sacrifice at least once a week were each recorded, and change amounts of body weights, i.e., body weight gains, for the recovery period after OVX (menopausal disorder induction period) and 12 weeks after start of administration were measured. […]

OVX ddY mice [3] = test: Femur weights in OVX ddY mice
Description: as §1, §2

OVX ddY mice [4] = test: Abdominal fat pad, uterus and liver weights in OVX ddY mice
Description: as §1
(§3) More specifically, the anti-obesity and estrogen-like effects were tested as follows. The body weights on OVX surgery date, 1 day before administration (27 days after OVX), the start date of administration, and from the first day after start of administration up to the time of final sacrifice at least once a week were each recorded, and change amounts of body weights, i.e., body weight gains, for the recovery period after OVX (menopausal disorder induction period) and 12 weeks after start of administration were measured. Food consumption (1, 3, 7, 28, 56 and 83 days after start of administration), serum estradiol levels, amounts of body fat and abdominal fat, weights of abdominal fat pad and uterus, histological changes of uterus and abdominal fat pads (changes in abdominal fat pad thickness and mean adipocyte diameter, thickness of uterus total, epithelium and mucosa, and percentage of uterine glands in the mucosa (FIG. 19) were observed.
(§4) Furthermore, to ascertain the protective effect against fatty liver, testing was conducted as follows. Liver weight, serum AST and ALT levels, and histological changes of liver (changes in mean hepatocyte diameter and region with hepatic degeneration showing fatty change) were observed.

OVX ddY mice [5] = test: Femur bone strength (failure load) in OVX ddY mice
Description: Bone strength is measured through failure load (FL).
as §1, with “efficacy. […]” for “efficacy.”

OVX ddY mice [6] = test: Serum biochemistry in OVX ddY mice
Description: as §1, §3, §4
The hyperlipidemia inhibitory effect was ascertained through changes in serum TC, LDL, HDL and TG levels.
as §2

OVX ddY mice [7] = test: Bone mineral density and fat density (DEXA) in OVX ddY mice
Description: as §1, §3, §2

OVX ddY mice [8] = test: Histology of abdominal fat pad, uterus and liver in OVX ddY mice
Description: as §1, §3, §4

C[C@]12CC[C@@H]3c4ccc(O)cc4CC[C@H]3[C@@H]1CC[C@@H]2O [Estradiol, 17β-estradiol]
Change in femur OS/BS vs OVX control (OVX ddY mice [1]): −37.50%
Change in femur cortical bone thickness vs OVX control (OVX ddY mice [1]): 21.85%
Change in femur mean trabecular bone number vs OVX control (OVX ddY mice [1]): 92.68%
Change in femur osteoclast cell number vs OVX control (OVX ddY mice [1]): −55.15%
Change in femur trabecular bone mass vs OVX control (OVX ddY mice [1]): 73.01%
Change in mean length of femur trabecular bone vs OVX control (OVX ddY mice [1]): 89.04%
Change in mean thickness of femur trabecular bone vs OVX control (OVX ddY mice [1]): 70.56%
Left femur Cbt (OVX ddY mice [1]): 184.17 ± 8.40^eg
Left femur OS/BS (OVX ddY mice [1]): 13.12 ± 1.41^eg
Left femur Ocn (OVX ddY mice [1]): 7.63 ± 1.06^ab
Left femur TV/BV (OVX ddY mice [1]): 29.89 ± 5.24^ab
Left femur Tbl (OVX ddY mice [1]): 905.51 ± 146.34^g
Left femur Tbn (OVX ddY mice [1]): 9.88 ± 1.36^eg
Left femur Tbt (OVX ddY mice [1]): 55.34 ± 8.99^eg
Body weight at sacrifice (OVX ddY mice [2]): 35.68 ± 2.19^ab g
Body weight gain, treatment [D-C] (OVX ddY mice [2]): 6.96 ± 1.21^fg
Change in body weight gain for duration of administration vs OVX control (OVX ddY mice [2]): −52.56%
Change in food consumption vs OVX control, day 1 (OVX ddY mice [2]): 0.87%
Change in food consumption vs OVX control, day 3 (OVX ddY mice [2]): −5.24%
Change in food consumption vs OVX control, day 7 (OVX ddY mice [2]): −13.04%
Change in food consumption vs OVX control, day 28 (OVX ddY mice [2]): −16.34%
Change in food consumption vs OVX control, day 56 (OVX ddY mice [2]): −20.01%
Change in food consumption vs OVX control, day 83 (OVX ddY mice [2]): −27.82%
Food consumption, day 1 (OVX ddY mice [2]): 11.49 ± 1.41^a g/24 hrs/rat
Food consumption, day 3 (OVX ddY mice [2]): 10.53 ± 0.93^a g/24 hrs/rat
Food consumption, day 7 (OVX ddY mice [2]): 9.82 ± 0.93^ac g/24 hrs/rat
Food consumption, day 28 (OVX ddY mice [2]): 9.52 ± 1.01^ab g/24 hrs/rat
Food consumption, day 56 (OVX ddY mice [2]): 10.24 ± 0.98^ab g/24 hrs/rat
Food consumption, day 83 (OVX ddY mice [2]): 10.65 ± 1.54^de g/24 hrs/rat
Change in femur absolute ash weight vs OVX control (OVX ddY mice [3]): 30.35%
Change in femur absolute dry weight vs OVX control (OVX ddY mice [3]): 14.93%
Change in femur absolute wet weight vs OVX control (OVX ddY mice [3]): 5.79%
Change in femur relative ash weight vs OVX control (OVX ddY mice [3]): 57.03%
Change in femur relative dry weight vs OVX control (OVX ddY mice [3]): 38.22%
Change in femur relative wet weight vs OVX control (OVX ddY mice [3]): 27.75%
Femur absolute ash weight (OVX ddY mice [3]): 0.033 ± 0.002^ac g
Femur absolute dry weight (OVX ddY mice [3]): 0.058 ± 0.004^gi
Femur absolute wet weight (OVX ddY mice [3]): 0.094 ± 0.007 g
Femur relative ash weight (OVX ddY mice [3]): 0.092 ± 0.007^ac % of body weight
Femur relative dry weight (OVX ddY mice [3]): 0.162 ± 0.016^gi % of body weight
Femur relative wet weight (OVX ddY mice [3]): 0.264 ± 0.032^ac % of body weight
Abdominal fat pad absolute wet-weight (OVX ddY mice [4]): 0.600 ± 0.536^bc g
Abdominal fat pad relative wet-weight (OVX ddY mice [4]): 1.656 ± 1.432^bc % of body weight
Change in abdominal fat pad absolute weight vs OVX control (OVX ddY mice [4]): −82.20%
Change in abdominal fat pad relative weight vs OVX control (OVX ddY mice [4]): −78.86%
Change in absolute liver weight vs OVX control (OVX ddY mice [4]): 5.37%
Change in relative liver weight vs OVX control (OVX ddY mice [4]): 27.16%
Change in uterus absolute weight vs OVX control (OVX ddY mice [4]): 288.64%
Change in uterus relative weight vs OVX control (OVX ddY mice [4]): 372.56%
Liver absolute wet-weight (OVX ddY mice [4]): 1.324 ± 0.073 g
Liver relative wet-weight (OVX ddY mice [4]): 3.724 ± 0.307^c % of body weight
Uterus absolute wet-weight (OVX ddY mice [4]): 0.107 ± 0.040^ac g
Uterus relative wet-weight (OVX ddY mice [4]): 0.303 ± 0.124^ac % of body weight
Change in bone strength of femur mid-shaft region vs OVX control (OVX ddY mice [5]): 61.41%
Change in serum AST level vs OVX control (first series) (OVX ddY mice [6]): −33.98%
Change in serum AST level vs OVX control (second series) (OVX ddY mice [6]): −31.58%
Change in serum HDL level vs OVX control (OVX ddY mice [6]): 52.09%
Change in serum LDL level vs OVX control (OVX ddY mice [6]): −26.87%
Change in serum TC level vs OVX control (OVX ddY mice [6]): −25.94%
Change in serum TG level vs OVX control (OVX ddY mice [6]): −34.80%
Change in serum bALP level vs OVX control (OVX ddY mice [6]): 39.72%
Change in serum estradiol level vs OVX control (OVX ddY mice [6]): 185.69%
Change in serum osteocalcin level vs OVX control (OVX ddY mice [6]): −31.95%
Serum ALT (OVX ddY mice [6]): 52.00 ± 10.03^ac U/L
Serum AST (OVX ddY mice [6]): 107.13 ± 12.43^ac U/L
Serum HDL (OVX ddY mice [6]): 72.63 ± 11.04^ac mg/dl
Serum LDL (OVX ddY mice [6]): 133.00 ± 10.54^ac mg/dl
Serum TC (OVX ddY mice [6]): 132.75 ± 21.06^ac mg/dl
Serum TG (OVX ddY mice [6]): 97.88 ± 18.16^ac mg/dl
Bone mineral density, right femur (OVX ddY mice [7]): 0.0259 ± 0.0008^bc g/cm^2
Bone mineral density, total body (OVX ddY mice [7]): 0.0237 ± 0.0004^ac g/cm^2
Change in amount of abdominal fat vs OVX control (OVX ddY mice [7]): −35.00%
Change in amount of body fat vs OVX control (OVX ddY mice [7]): −33.02%
Change in mean total body bone mineral density vs OVX control (OVX ddY mice [7]): 9.86%
Change in total femur bone mineral density vs OVX control (OVX ddY mice [7]): 10.78%
Fat density, abdominal cavity (OVX ddY mice [7]): 26.75 ± 4.22^ac % of body mass
Fat density, total body (OVX ddY mice [7]): 23.42 ± 4.24^ac % of body mass
Change in abdominal fat pad thickness vs OVX control (OVX ddY mice [8]): −52.23%
Change in mean adipocyte diameter vs OVX control (OVX ddY mice [8]): −48.06%
Change in mean hepatocyte diameter vs OVX control (OVX ddY mice [8]): −42.21%
Change in percentage of uterine glands in the uterine mucosa vs OVX control (OVX ddY mice [8]): 180.37%
Change in region with hepatic fatty degeneration vs OVX control (OVX ddY mice [8]): −44.73%
Change in uterine epithelium mean thickness vs OVX control (OVX ddY mice [8]): 170.17%
Change in uterine mucosa mean thickness vs OVX control (OVX ddY mice [8]): 196.04%
Change in uterus total mean thickness vs OVX control (OVX ddY mice [8]): 181.27%
Hepatic steatosis regions (OVX ddY mice [8]): 43.43 ± 6.53^ac %
Left uterine horn epithelium thickness (OVX ddY mice [8]): 20.75 ± 4.52^ac μm
Left uterine horn mucosa layer thickness (OVX ddY mice [8]): 598.74 ± 153.51^ac μm
Left uterine horn total thickness (OVX ddY mice [8]): 1593.32 ± 371.85^bc μm
Mean adipocyte diameters (OVX ddY mice [8]): 67.49 ± 14.77^ac μm
Mean hepatocyte diameters (OVX ddY mice [8]): 18.45 ± 3.66^ac μm
Uterine gland regions (OVX ddY mice [8]): 34.93 ± 4.60^ac %
